Read-outs that look alike come from different tables or passages of the source. Non-standard residues stand in square brackets, D forms with d. Residues, ends and D or L forms follow the SMILES beside them. β3hE = N[C@@H](CCC(=O)O)CC(=O)O; β3hL = CC(C)C[C@H](N)CC(=O)O; β3hD = NC(CC(=O)O)CC(=O)O

Experiment [1] has as its target p300/CBP. On the set-up: method as in ref 2 (a number printed in a supplementary file, which may have a reference list of its own: not looked up in the article's list). Particulars: ITC, 68% confidence intervals in brackets; read-out: Direct binding to p300/CBP, KD; cited from earlier work.
In experiment [2] the target is p300-HIF-1α complex. Also on record: method as in ref 2 (a number printed in a supplementary file, which may have a reference list of its own: not looked up in the article's list). Particulars: ITC titration against p300-HIF-1α complex, 68% confidence intervals in brackets; read-out: Competition with HIF-1α, KD, apparent; cited from earlier work.
The target in experiment [3] is p300/CBP. Also on record: method as in ref 1 (a number printed in a supplementary file, which may have a reference list of its own: not looked up in the article's list). The conditions noted are these: bio-layer interferometry; read-out: Direct binding to p300/CBP, KD; cited from earlier work.
Experiment [4] concerns the target CBP bound Alexa594-HIF-1α. On the set-up: method as in 3 sources, one per row (each row's own in cited_ref): ref 1 (a number printed in a supplementary file, which may have a reference list of its own: not looked up in the article's list) ||| ref 3 (a number printed in a supplementary file, which may have a reference list of its own: not looked up in the article's list) ||| ref 4 (a number printed in a supplementary file, which may have a reference list of its own: not looked up in the article's list). The conditions noted are these: FA titration against CBP bound Alexa594-HIF-1α; read-out: Competition with HIF-1α, KD, apparent; cited from earlier work.

Experiment [5] has as its target CBP bound Alexa594-CITED2. On the set-up: method as in 3 sources, one per row (each row's own in cited_ref): ref 1 (a number printed in a supplementary file, which may have a reference list of its own: not looked up in the article's list) ||| ref 3 (a number printed in a supplementary file, which may have a reference list of its own: not looked up in the article's list) ||| ref 4 (a number printed in a supplementary file, which may have a reference list of its own: not looked up in the article's list). Particulars: FA titration against CBP bound Alexa594-CITED2; read-out: Direct binding to p300/CBP, KD, apparent; cited from earlier work.

Experiment [6] concerns p300–HIF-1α complex. The experiment is described as follows: NMR competition, p300 with equimolar HIF-1α and CITED2 peptide (1H–15N HSQC). It is filed as binding, human. The conditions noted are these: 13C,15N-p300_330–424, 1.2 eq of each peptide, 10 mM Tris pH 6.9, 50 mM NaCl, 1 mM DTT, 298 K. How it is done:
To investigate the reversibility of the competition, samples containing p300 with equimolar amounts of HIF-1α and CITED2_218–256 or CITED2ΔN were prepared. […] (Table S1, ESI ^†). […]
a = KHIF + KCIT + [HIF]t + [CIT]t − [P]t (16)
b = KHIFKCIT + KHIF([CIT]t − [P]t) + KCIT([HIF]t − [P]t) (17)
KHIF = dissociation constant for Flu-HIF-1α, KCIT = dissociation constant for the competitor CITED2 or variant, [CIT]t = total concentration of the competitor CITED2 or variant, [P]t = total concentration of […]
Fitted parameters were: KHIF, KCIT, [HIF]t, [P]t, rP:HIF, rHIF from which KHIF, rP:HIF, rHIF, [HIF]t were kept constant during fitting. KHIF, rP:HIF, rHIF was determined in a separate experiment using HIF-1α776-826 as a competitor
(Fig. S3) [HIF]t was determined using fluorescence intensity measurements relative to a fluorescein calibration curve. [P]t was kept as a floating parameter to account for incompetent protein fraction.
Anisotropy values were normalized and represented as ligand-bound (Lb) values (Eq. 19.) L = (r − rHIF) ∗ [HIF] (19) […]
into three samples: to the first CITED2224-256 was added, to the second CITED2218-256 was added in 1.2 equivalent relative to p300 concentration, and to the third, same volume of buffer was added, and concentrated down to final sample volume. Concentrations were determined based on UV absorbance at 280 nm for p300 and CITED2 variants and at 205 nm for HIF-1α. […]

Experiment [7] has as its target T1, p300–Flu-HIF-1α (Homo sapiens, UniProt Q09472).
T1 construct: from residues 330-420 (used for FA and ITC experiments); GST (N, cleaved yes); made in house; host or cells: p300: E. coli BL21 pLysS (pGEX-4T-1); tracer peptide: solid-phase synthesis
The experiment is described as follows: Fluorescence anisotropy competition against p300–Flu-HIF-1α. The conditions noted are these: 50 nM p300_330–420, 25 nM Flu-HIF-1α786–826 tracer, 40 mM Na-phosphate, 100 mM NaCl, 1 mM DTT, 0.01% Triton-X, pH 7.4, 10 min at 35 °C; fixed KD = 64 nM for tracer; three repeats; read-out: Kd,app FA competition against p300–Flu-HIF-1α. The experiment is classed as binding.

Experiment [8] addresses T2, p300_330–420 (TAZ1 domain) (Homo sapiens, UniProt Q09472).
T2 construct: from residues 330-420 (used for FA and ITC experiments); GST (N, cleaved yes); made in house; host or cells: E. coli BL21 pLysS (pGEX-4T-1)
The experiment is described as follows: ITC direct titration to p300. The experiment is classed as binding. Particulars: 5 µM p300_330–420 in cell, 60 µM ligand in syringe, 35 °C, 40 mM Na-phosphate pH 7.5, 100 mM NaCl, 1 mM DTT, global fit with ternary intermediate model, 68% confidence intervals in brackets, read-out: Direct binding to p300, K d.

T1 sequence (Q09472 330-420): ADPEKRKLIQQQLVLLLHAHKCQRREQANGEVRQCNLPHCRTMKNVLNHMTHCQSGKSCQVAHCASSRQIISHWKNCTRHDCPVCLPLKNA
T2 sequence (Q09472 330-420): as above

Turning to “CITED2216-248: CITED2 residues 216–248, previously reported (NVIDTDFIDEEVLMSLVIEMGLDRIKELPELWL; UniProt Q99967 216-248, looked up, fragment)”, the Kd is 303 nM in experiment [1] and 47 nM in experiment [2].

As for “CITED2216-269: CITED2 residues 216–269, previously reported (NVIDTDFIDEEVLMSLVIEMGLDRIKELPELWLGQNEFDFMTDFVCKQQPSRVS; UniProt Q99967 216-269, looked up, fragment)”, the Kd in experiment [1] was 26 nM; in experiment [3], 9 ± 2 nM; in experiment [4], 0.2 ± 0.1 nM; in experiment [2], 1.1 nM; in experiment [5] it was 10 ± 1 nM.

Take “CITED2216-246: CITED2 residues 216–246, previously reported (NVIDTDFIDEEVLMSLVIEMGLDRIKELPEL; UniProt Q99967 216-246, looked up, fragment)”: the Kd in experiment [4] is 210 ± 20 nM; in experiment [5] it was 5000 ± 1000 nM.

Regarding “CITED2_224–259: CITED2 residues 224–259, longer C terminus, without N-terminal tail (DEEVLMSLVIEMGLDRIKELPELWLGQNEFDFMTDF; UniProt Q99967 224-259, looked up, fragment)”, the Kd in experiment [1] is 9 nM; in experiment [2], 12 nM. The “Species observed in sample with equimolar HIF-1α and CITED2 peptide (reversibility of competition)” value in experiment [6] is listed as “did not influence competition efficiency or unidirectionality”.

Take `CC[C@H](C)[C@H](NC(C)=O)C(=O)N[C@@H](CC(=O)O)C(=O)N[C@H](C(=O)N[C@@H](CC(=O)O)C(=O)N[C@@H](Cc1ccccc1)C(=O)N[C@H](C(=O)N[C@@H](CC(=O)O)C(=O)N[C@@H](CCC(=O)O)C(=O)N[C@@H](CCC(=O)O)C(=O)N[C@H](C(=O)N[C@@H](CC(C)C)C(=O)N[C@@H](CCSC)C(=O)N[C@@H](CO)C(=O)N[C@@H](CC(C)C)C(=O)N[C@H](C(=O)N[C@H](C(=O)N[C@@H](CCC(=O)O)C(=O)N[C@@H](CCSC)C(=O)NCC(=O)N[C@@H](CC(C)C)C(=O)N[C@@H](CC(=O)O)CC(=O)N[C@H](C(=O)N[C@@H](CCC(=O)O)CC(=O)N[C@@H](CC(C)C)C(=O)N1CCC[C@H]1C(=O)N[C@@H](CCC(=O)O)C(=O)N[C@@H](CC(C)C)C(=O)N[C@@H](Cc1c[nH]c2ccccc12)C(=O)N[C@@H](CC(C)C)C(=O)NCC(=O)N[C@@H](CCC(N)=O)C(=O)N[C@@H](CC(N)=O)C(=O)N[C@@H](CCC(=O)O)C(=O)N[C@@H](Cc1ccccc1)C(=O)N[C@@H](CC(=O)O)C(=O)N[C@@H](Cc1ccccc1)C(=O)N[C@@H](CCSC)C(N)=O)[C@@H](C)CC)[C@@H](C)CC)C(C)C)C(C)C)[C@@H](C)CC)[C@@H](C)O` [3c] (Ac-IDTDFIDEEVLMSLVIEMGL[β3hD]I[β3hE]LPELWLGQNEFDFM-NH2): the figures for the Kd in experiment [7] and in experiment [8] were 76 ± 6 nM and 29 nM, respectively.

As to HIF-1α786-826: HIF-1α residues 786–826, the Kd in experiment [1] was 43 nM.

As to `CC[C@H](C)[C@H](NC(C)=O)C(=O)N[C@@H](CC(=O)O)C(=O)N[C@H](C(=O)N[C@@H](CC(=O)O)C(=O)N[C@@H](Cc1ccccc1)C(=O)N[C@H](C(=O)N[C@@H](CC(=O)O)C(=O)N[C@@H](CCC(=O)O)C(=O)N[C@@H](CCC(=O)O)C(=O)N[C@H](C(=O)N[C@@H](CC(C)C)C(=O)N[C@@H](CCSC)C(=O)N[C@@H](CO)C(=O)N[C@@H](CC(C)C)C(=O)N[C@H](C(=O)N[C@H](C(=O)N[C@@H](CCC(=O)O)C(=O)N[C@@H](CCSC)C(=O)NCC(=O)N[C@@H](CC(C)C)C(=O)N[C@@H](CC(=O)O)CC(=O)N[C@@H](CCCNC(=N)N)C(=O)N[C@H](C(=O)N[C@@H](CCC(=O)O)CC(=O)N[C@@H](CC(C)C)C(=O)N1CCC[C@H]1C(=O)N[C@@H](CCC(=O)O)C(=O)N[C@@H](CC(C)C)C(=O)N[C@@H](Cc1c[nH]c2ccccc12)C(=O)N[C@H](CC(=O)NCC(=O)N[C@@H](CCC(N)=O)C(=O)N[C@@H](CC(N)=O)C(=O)N[C@@H](CCC(=O)O)C(=O)N[C@@H](Cc1ccccc1)C(=O)N[C@@H](CC(=O)O)C(=O)N[C@@H](Cc1ccccc1)C(=O)N[C@@H](CCSC)C(N)=O)CC(C)C)[C@@H](C)CC)[C@@H](C)CC)C(C)C)C(C)C)[C@@H](C)CC)[C@@H](C)O` [3b] (Ac-IDTDFIDEEVLMSLVIEMGL[β3hD]RI[β3hE]LPELW[β3hL]GQNEFDFM-NH2), the Kd came to 112 ± 13 nM in experiment [7] and 98 nM in experiment [8].

Regarding “Ac-DEEVLMSLVIEMGLDRIKELPELWLGQNEFDFM-NH2 [CITED2ΔN]”, the Kd in experiment [7] was determined as 86 ± 5 nM; in experiment [8], 51 nM.

The values are drawn from paper PMC11289882, “Site-directed allostery perturbation to probe the negative regulation of hypoxia inducible factor-1α” (RSC Chemical Biology, 2024).
